Legend:
Experiment in all cases: relative viability (nuclei count vs DMSO), 5 days (fraction); higher = more cells survive
NCI-H650 = system: NCI-H650
Method in brief: (§1)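 For relative viability, nuclei counts in treated wells were divided by those in vehicle wells. Lung cancer cell lines had been pin-tool dosed in 1536-well plates the day after seeding and cultured for 5 days, then fixed and stained in one step (final 0.05% Triton X-100, 1% formaldehyde, 1 ug/ml Hoechst) and imaged at 4×. Doses were one drug alone or a fixed anchor-drug dose plus five library-drug doses (not always all listed) in √10 steps, and values are duplicate-plate medians.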

NCI-H2009 = system: NCI-H2009
Method in brief: as §1

A-427 = system: A-427
Method in brief: as §1

UMC-11 = system: UMC-11
Method in brief: as §1

H3255 = system: H3255
Method in brief: as §1

HARA = system: HARA
Method in brief: as §1

NCI-H1915 = system: NCI-H1915
Method in brief: as §1

HCC-366 = system: HCC-366
Method in brief: as §1

NCI-H596 = system: NCI-H596
Method in brief: as §1

PC-3 [JPC-3] = system: PC-3 [JPC-3]
Method in brief: as §1

SK-LU-1 = system: SK-LU-1
Method in brief: as §1

NCI-H2405 = system: NCI-H2405
Method in brief: as §1

NCI-H460 = system: NCI-H460
Method in brief: as §1

NCI-H441 = system: NCI-H441
Method in brief: as §1

NCI-H1623 = system: NCI-H1623
Method in brief: as §1

PC-14 = system: PC-14
Method in brief: as §1

NCI-H2023 = system: NCI-H2023
Method in brief: as §1

NCI-H1437 = system: NCI-H1437
Method in brief: as §1

NCI-H1755 = system: NCI-H1755
Method in brief: as §1

NCI-H1793 = system: NCI-H1793
Method in brief: as §1

HCC-15 = system: HCC-15
Method in brief: as §1

NCI-H1975 = system: NCI-H1975
Method in brief: as §1

NCI-H3122 = system: NCI-H3122
Method in brief: as §1

LXF-289 = system: LXF-289
Method in brief: as §1

For `CCCCCCCCCCCC1=C(O)C(=O)C=C(O)C1=O` [Embelin] + Cc1cc(Nc2cc(N3CCN(C)CC3)nc(Sc3ccc(NC(=O)C4CC4)cc3)n2)n[nH]1 [Tozasertib] (partner 0.1 µM), the relative viability (NCI-H650; first compound 0.08 µM) was 0.823, the relative viability (NCI-H650; first compound 0.8 µM) was 1.04 and the relative viability (NCI-H650; first compound 2.53 µM) was 0.869. It also gave a relative viability (NCI-H650; first compound 8 µM) of 0.724, a relative viability (NCI-H2009; first compound 0.08 µM) of 0.753 and a relative viability (NCI-H2009; first compound 0.8 µM) of 0.915. For the same compound, the relative viability (NCI-H2009; first compound 2.53 µM) was 0.798, the relative viability (NCI-H2009; first compound 8 µM) was 0.714 and the relative viability (A-427; first compound 0.08 µM) was 0.229. It also gave a relative viability (A-427; first compound 0.8 µM) of 0.196, a relative viability (A-427; first compound 2.53 µM) of 0.188 and a relative viability (A-427; first compound 8 µM) of 0.243. For the same compound, the relative viability (UMC-11; first compound 0.08 µM) was 0.211, the relative viability (UMC-11; first compound 0.8 µM) was 0.199 and the relative viability (UMC-11; first compound 2.53 µM) was 0.184. It also gave a relative viability (UMC-11; first compound 8 µM) of 0.192, a relative viability (H3255; first compound 0.08 µM) of 0.716 and a relative viability (H3255; first compound 0.8 µM) of 0.595. For the same compound, the relative viability (H3255; first compound 2.53 µM) was 0.812, the relative viability (H3255; first compound 8 µM) was 0.851 and the relative viability (HARA; first compound 0.08 µM) was 0.106. It also gave a relative viability (HARA; first compound 0.8 µM) of 0.105, a relative viability (HARA; first compound 2.53 µM) of 0.119 and a relative viability (HARA; first compound 8 µM) of 0.133. The relative viability (NCI-H1915; first compound 0.08 µM) was 0.463, the relative viability (NCI-H1915; first compound 0.8 µM) was 0.448 and the relative viability (NCI-H1915; first compound 2.53 µM) was 0.458. For the same compound, the relative viability (NCI-H1915; first compound 8 µM) was 0.49, the relative viability (HCC-366; first compound 0.08 µM) was 0.108 and the relative viability (HCC-366; first compound 0.8 µM) was 0.188. For the same compound, the relative viability (HCC-366; first compound 2.53 µM) was 0.177, the relative viability (HCC-366; first compound 8 µM) was 0.113 and the relative viability (NCI-H596; first compound 0.08 µM) was 0.821. For the same compound, the relative viability (NCI-H596; first compound 0.8 µM) was 1.06, the relative viability (NCI-H596; first compound 2.53 µM) was 0.952 and the relative viability (NCI-H596; first compound 8 µM) was 0.939. For the same compound, the relative viability (PC-3 [JPC-3]; first compound 0.08 µM) was 0.843, the relative viability (PC-3 [JPC-3]; first compound 0.8 µM) was 0.944 and the relative viability (PC-3 [JPC-3]; first compound 2.53 µM) was 0.927. The relative viability (PC-3 [JPC-3]; first compound 8 µM) was 0.991, the relative viability (SK-LU-1; first compound 0.08 µM) was 0.377 and the relative viability (SK-LU-1; first compound 0.8 µM) was 0.369. For the same compound, the relative viability (SK-LU-1; first compound 2.53 µM) was 0.379, the relative viability (SK-LU-1; first compound 8 µM) was 0.323 and the relative viability (NCI-H2405; first compound 0.08 µM) was 0.816. It also gave a relative viability (NCI-H2405; first compound 0.8 µM) of 0.798, a relative viability (NCI-H2405; first compound 2.53 µM) of 0.847 and a relative viability (NCI-H2405; first compound 8 µM) of 0.826. The relative viability (NCI-H460; first compound 0.08 µM) was 0.516, the relative viability (NCI-H460; first compound 0.8 µM) was 0.493 and the relative viability (NCI-H460; first compound 2.53 µM) was 0.666. The relative viability (NCI-H460; first compound 8 µM) was 0.883, the relative viability (NCI-H441; first compound 0.08 µM) was 0.588 and the relative viability (NCI-H441; first compound 0.8 µM) was 0.628. For the same compound, the relative viability (NCI-H441; first compound 2.53 µM) was 0.624, the relative viability (NCI-H441; first compound 8 µM) was 0.629 and the relative viability (NCI-H1623; first compound 0.08 µM) was 0.44. For the same compound, the relative viability (NCI-H1623; first compound 0.8 µM) was 0.412, the relative viability (NCI-H1623; first compound 2.53 µM) was 0.45 and the relative viability (NCI-H1623; first compound 8 µM) was 0.423. It also gave a relative viability (PC-14; first compound 0.08 µM) of 0.612, a relative viability (PC-14; first compound 0.8 µM) of 0.718 and a relative viability (PC-14; first compound 2.53 µM) of 0.74. For the same compound, the relative viability (PC-14; first compound 8 µM) was 0.644, the relative viability (NCI-H2023; first compound 0.08 µM) was 0.412 and the relative viability (NCI-H2023; first compound 0.8 µM) was 0.406. For the same compound, the relative viability (NCI-H2023; first compound 2.53 µM) was 0.369, the relative viability (NCI-H2023; first compound 8 µM) was 0.302 and the relative viability (NCI-H1437; first compound 0.08 µM) was 0.41. For the same compound, the relative viability (NCI-H1437; first compound 0.8 µM) was 0.417, the relative viability (NCI-H1437; first compound 2.53 µM) was 0.457 and the relative viability (NCI-H1437; first compound 8 µM) was 0.448. It also gave a relative viability (NCI-H1755; first compound 0.08 µM) of 0.666, a relative viability (NCI-H1755; first compound 0.8 µM) of 0.647 and a relative viability (NCI-H1755; first compound 2.53 µM) of 0.605. The relative viability (NCI-H1755; first compound 8 µM) was 0.555, the relative viability (NCI-H1793; first compound 0.08 µM) was 0.399 and the relative viability (NCI-H1793; first compound 0.8 µM) was 0.44. For the same compound, the relative viability (NCI-H1793; first compound 2.53 µM) was 0.4, the relative viability (NCI-H1793; first compound 8 µM) was 0.327 and the relative viability (HCC-15; first compound 0.08 µM) was 0.412. It also gave a relative viability (HCC-15; first compound 0.8 µM) of 0.486, a relative viability (HCC-15; first compound 2.53 µM) of 0.55 and a relative viability (HCC-15; first compound 8 µM) of 0.401. The relative viability (NCI-H1975; first compound 0.08 µM) was 0.901, the relative viability (NCI-H1975; first compound 0.8 µM) was 0.745 and the relative viability (NCI-H1975; first compound 2.53 µM) was 0.683. The relative viability (NCI-H1975; first compound 8 µM) was 0.839, the relative viability (NCI-H3122; first compound 0.08 µM) was 0.356 and the relative viability (NCI-H3122; first compound 0.8 µM) was 0.457. The relative viability (NCI-H3122; first compound 2.53 µM) was 0.424, the relative viability (NCI-H3122; first compound 8 µM) was 0.417 and the relative viability (LXF-289; first compound 0.08 µM) was 0.192. The relative viability (LXF-289; first compound 0.8 µM) was 0.187, the relative viability (LXF-289; first compound 2.53 µM) was 0.169 and the relative viability (LXF-289; first compound 8 µM) was 0.271.
